Reference: patent US9737493B2, “Compositions and methods for modulating DNMT1 inhibitor activity” (University of Louisville Research Foundation, Inc., priority 2012, dated 2017)

Assays:
[1] = system: MDA-MB-231 cells; experiment: Clonogenic cell survival assay; assay type: cell-based, human; conditions: MDA-MB-231, NAC and GSH 5 mM, AA 100 μM, 10 days
Experimental: Clonogenic cell survival assays were conducted with MDA-MB-231 cells treated as indicated and grown in culture for 10 days (see Methods). Clonogenic Assays. Cells were plated at low density (300 cells/well) in 6-well tissue culture plates, and allowed to adhere overnight. Where indicated, the medium was then replaced with fresh medium containing antioxidants or vehicle (sterile ultrapure H2O). XB05 or vehicle control (DMSO) was then added directly to the medium at the concentrations indicated. After 10 days, cells were fixed with 4% paraformaldehyde in PBS and stained with Accustain Crystal Violet Solution (Sigma Aldrich) washed and air-dried. Colonies were counted using the cell counter feature in the Image J software, available from the National Institute of Health (<<rsbweb.nih.gov/ij/download.html>>).

[2] = system: A549 cells; conditions: A549, in combination with XB05, 10 days
Experimental: (C) Clonogenic cell survival assays were conducted in A549 cells treated as indicated and grown in culture for 10 days (see Methods). Bar graph indicates mean values (+/−SEM) for colony growth inhibition from 3 independent experiments. […] Clonogenic Assays. Cells were plated at low density (300 cells/well) in 6-well tissue culture plates, and allowed to adhere overnight. Where indicated, the medium was then replaced with fresh medium containing antioxidants or vehicle (sterile ultrapure H2O). XB05 or vehicle control (DMSO) was then added directly to the medium at the concentrations indicated. After 10 days, cells were fixed with 4% paraformaldehyde in PBS and stained with Accustain Crystal Violet Solution (Sigma Aldrich) washed and air-dried. Colonies were counted using the cell counter feature in the Image J software, available from the National Institute of Health (<<rsbweb.nih.gov/ij/download.html>>).

[3] = system: A549 cells; assay type: cell-based; conditions: for effect of antioxidant on XB05-induced cell death: A549, annexin/PI, in combination with XB05, 72 h
Experimental: Some cells were treated with buthionine sulfoximine (BSO, 200 μM) plus diethyl maleate (DEM, 1 mM) for 3 h as a positive control for GSH depletion. Bar graph indicates mean+/−SEM from three independent experiments. […] Membranes were stripped and reprobed for Ku-70 as a loading control.
Flow Cytometric Assays. Analyses were performed using a FACScalibur flow cytometer (BD Biosciences, Mountain View, Calif.) and FlowJo software (Tree Star, Inc., Ashland, Oreg.). Cells were treated as indicated in the figures and in the Brief Description of the Drawings. Cells were harvested by using TrypLE Cell Dissociation Reagent (Life Technologies). For cell death analyses, cells (adherent and detached cells) were stained with annexin-V-FITC and propidium iodide (PI) using the Apoptosis Detection Kit (BD Biosciences, San Jose, Calif.), according to the manufacturer's instructions. For cell-cycle distribution, cells were fixed, and stained with PI using the Cycle Test Plus kit (Becton Dickinson, Franklin Lakes, N.J.). For detection of γ-H2AX, cells were washed with PBS and fixed in 4% paraformaldehyde in PBS for 10 min at 37° C. […] After washing with PBS, cells were re-suspended in PBS containing 1 μg/mL PI to allow exclusion of non-viable cells. For detection of mitochondrial superoxide, cells were harvested, washed with PBS and stained with 5 μM MitoSOX™ Red (Life Technologies) in warm PBS for 10 min at 37° C. Cells were then washed twice with PBS, re-suspended at a density of 1×10^6 cells/mL in PBS and analyzed by flow cytometry.

[4] = system: A549 non-small cell lung cancer cells; experiment: MTT cell proliferation assay; assay type: cell-based, human; conditions: A549, MTT, in combination with XB05, 72 h
Experimental: (§1) Cell Proliferation Assays. The antiproliferative activity of XB05 was tested using a previously published 3-(4,5-dimethylthiazol-2-yl)-2,5-diphenyltetrazolium bromide (MTT) assay protocol (Girvan et al., “AGRO100 inhibits activation of nuclear factor-kappaB (NF-kappaB) by forming a complex with NF-kappaB essential modulator (NEMO) and nucleolin” Molecular Cancer Therapeutics (2006) Vol. 5, No. 7, pp. 1790-1799). Briefly, cells were seeded in quadruplicate wells in 96-well plates and allowed to adhere overnight. […] Plates were incubated with XB05 for 72 h, during which the cell culture medium was not changed. Cell viability was determined and the background corresponding to medium alone (no cells) was subtracted. Data were analyzed as described in the Brief Description of the Drawings.
(§2) XB05 has Cancer-Selective Antiproliferative Activity. XB05 was tested to determine its antiproliferative activity in a variety of human cell lines that are derived from malignant tissues or from non-malignant (immortalized but not transformed) cells and listed in FIG. 1B. As described in Materials and Methods, cells were treated with varying concentrations of XB05 for 72 h and evaluated using the MTT cell proliferation assay.

[5] = system: U937 myeloid leukemia cells; experiment: MTT cell proliferation assay; assay type: cell-based, human; conditions: U937, MTT and flow cytometric assays, in combination with XB05, 72 h
Experimental: as §1, §2

[6] = system: U937 cells; experiment: Clonogenic cell survival assay; assay type: cell-based, human; conditions: U937, 100 μM BHA, data not shown
[7] = system: U937 cells; experiment: Annexin/PI flow cytometric cell death analysis; assay type: cell-based, human; conditions: U937, 50 and 100 μM BSO, 1 μM XB05, 72 h
Experimental: Data shown are representative of three independent experiments. (B) The cell lines indicated were treated with DMSO vehicle or XB05 (1 μM for U937 and Hs27, or 2 μM for A549) for the timepoints indicated. (C) The cell lines indicated were treated with DMSO vehicle, XB05 (1 μM for U937 and Hs27, or 2 μM for A549) or Thapsigargin positive control (2 μM) for 24 h. Densitometry was performed to quantify western blot band intensities for phospho-eIF2α (ser51), total eIF2α and BiP (representative blot shown in FIG. 8D). All values were normalized to DMSO vehicle control. Bar graphs indicate the average band intensity for three independent experiments, +/−the standard error of the mean. Statistical significance for XB05 compared to vehicle is indicated (*p≦0.05 and **p≦0.01).
Flow Cytometric Assays. Analyses were performed using a FACScalibur flow cytometer (BD Biosciences, Mountain View, Calif.) and FlowJo software (Tree Star, Inc., Ashland, Oreg.). Cells were treated as indicated in the figures and in the Brief Description of the Drawings. Cells were harvested by using TrypLE Cell Dissociation Reagent (Life Technologies). […] Cells were then washed twice with PBS, re-suspended at a density of 1×10^6 cells/mL in PBS and analyzed by flow cytometry.

[8] = system: Colo-205 xenografts; experiment: Colo-205 xenografts in nude mice; assay type: in vivo; conditions: 25 mg/kg daily for 21 days, i.v.

| Compound | protection from cytotoxic effects of XB05 [1] | effect of antioxidant on XB05 effect on clonogenic survival [2] | effect of antioxidant on XB05-induced cell death [3] | effect of antioxidant on antiproliferative effects of XB05 [4] | protection from antiproliferative and cytotoxic effects of XB05 [5] | further results |
| --- | --- | --- | --- | --- | --- | --- |
| O=C1O[C@H]([C@@H](O)CO)C(O)=C1O [AA, L-ascorbic acid] | not | no protective effect | slightly enhanced the pro-apoptotic activity of XB05 | no effect | not | – |
| COc1ccc(O)c(C(C)(C)C)c1 [BHA, butylated hydroxyanisole] | – | – | – | – | – | protection from XB05 activity [6]: no protective effect |
| CCCCS(=N)(=O)CCC(N)C(=O)O (centres unmarked) [BSO, buthionine sulfoximine] | – | – | – | – | – | cytotoxicity of BSO plus XB05 compared to XB05 alone ([3]; A549, 50 and 100 μM BSO, 2 μM XB05, 72 h): enhanced cytotoxicity compared to XB05 treatment alone; cytotoxicity of BSO plus XB05 compared to XB05 alone [7]: enhanced cytotoxicity compared to XB05 treatment alone |
| N[C@@H](CCC(=O)N[C@@H](CS)C(=O)NCC(=O)O)C(=O)O [GSH, reduced glutathione] | protect these cells from the cytotoxic effects of XB05 | abrogated the effect of XB05 on clonogenic survival | protected cells from XB05-induced apoptosis and nonapoptotic cell death | diminish the antiproliferative effects of XB05 | protect these cells from the antiproliferative and cytotoxic effects of XB05 | – |
| CC/C=C\CCC(O)C#CC(F)(F)Br (centres unmarked) [LD-01-072] | – | – | – | – | – | in vivo antitumor efficacy [8]: in vivo antitumor efficacy; non-specific toxicity judged by body weight [8]: no evidence of any severe non-specific toxicities |
| CC(=O)N[C@@H](CS)C(=O)O [NAC, N-acetyl cysteine] | protect these cells from the cytotoxic effects of XB05 | abrogated the effect of XB05 on clonogenic survival | protected cells from XB05-induced apoptosis and nonapoptotic cell death | diminish the antiproliferative effects of XB05 | protect these cells from the antiproliferative and cytotoxic effects of XB05 | – |
